Assay results taken from patent US12522851B2, “Method for purifying indole-3-lactic acid from Lactobacillus plantarum fermentation supernatant” (Zhejiang Gongshang University, priority 2021, dated 2026).

Assays:
Test in all cases: Oxford cup method antibacterial activity
Assay type in all cases: cell-based
Bacillus subtilis BAS2 = settings: 150 μL of 10 mg/ml in 1% acetonitrile aqueous solution, 1% indicator bacteria, read-out: Diameter of inhibition zone
Experimental: (§1) The antibacterial activity of indole-3-lactic acid obtained by purification in step III in Embodiment 2 (i.e., concentrated H4 with a purity of 99.00%) was determined by an oxford cup method. 1% (volume concentration) of indicator bacteria was added to 150 μL of 10 mg/ml indole-3-lactic acid (dissolved in 1% acetonitrile aqueous solution). […] Listeria monocytogenes LM1, Bacillus subtilis BAS2, Salmonella paratyphi B CMCC50094, Salmonella paratyphi A CMCC50093, Salmonella enterica subsp. arizonae CMCC (B) 47001 and Salmonella typhimurium CMCC50015 were purchased from National Center for Medical Culture Collections (CMCC). Escherichia coli DH5a was purchased from Sangon Biotech (Shanghai) Co., Ltd. Staphylococcus aureus ATCC25923, Pseudomonas aeruginosa ATCC47085, Salmonella enterica subsp. enterica ATCC14028 and Salmonella choleraseuis ATCC13312 were purchased from American Type Culture Collection (ATCC). Micrococcus luteus CICC 10209 was purchased from China Center of Industrial Culture Collection (CICC). Staphylococcus citreus LC5 was purchased from China Center for Type Culture Collection (CCTCC). Staphylococcus simulans, Staphylococcus warneri, Staphylococcus carnosus pCA44 and Staphylococcus carnosus pot20 were presented by Professor Eefjan Breukink of Utrecht University in the Netherlands.

Escherichia coli DH5α = settings: 150 μL of 10 mg/ml in 1% acetonitrile aqueous solution, 1% indicator bacteria, read-out: Diameter of inhibition zone
Experimental: as §1

[1] = test system: Listeria monocytogenes LM1; settings: 150 μL of 10 mg/ml in 1% acetonitrile aqueous solution, 1% indicator bacteria, read-out: Diameter of inhibition zone
Experimental: as §1

[2] = test system: Micrococcus luteus CICC 10209; settings: CICC10209, 150 μL of 10 mg/ml in 1% acetonitrile aqueous solution, 1% indicator bacteria, read-out: Diameter of inhibition zone
Experimental: as §1

[3] = test system: Pseudomonas aeruginosa ATCC47085; settings: 150 μL of 10 mg/ml in 1% acetonitrile aqueous solution, 1% indicator bacteria, read-out: Diameter of inhibition zone
Experimental: as §1

[4] = test system: Salmonella choleraseuis ATCC13312; settings: 150 μL of 10 mg/ml in 1% acetonitrile aqueous solution, 1% indicator bacteria, read-out: Diameter of inhibition zone
Experimental: as §1

[5] = test system: Salmonella enterica subsp. arizonae CMCC(B)47001; settings: 150 μL of 10 mg/ml in 1% acetonitrile aqueous solution, 1% indicator bacteria, read-out: Diameter of inhibition zone
Experimental: as §1

[6] = test system: Salmonella enterica subsp. enterica ATCC14028; settings: 150 μL of 10 mg/ml in 1% acetonitrile aqueous solution, 1% indicator bacteria, read-out: Diameter of inhibition zone
Experimental: as §1

[7] = test system: Salmonella paratyphi A CMCC50093; settings: Salmonella enterica, 150 μL of 10 mg/ml in 1% acetonitrile aqueous solution, 1% indicator bacteria, read-out: Diameter of inhibition zone
Experimental: as §1

[8] = test system: Salmonella paratyphi B CMCC50094; settings: Salmonella enterica, 150 μL of 10 mg/ml in 1% acetonitrile aqueous solution, 1% indicator bacteria, read-out: Diameter of inhibition zone
Experimental: as §1

[9] = test system: Salmonella typhimurium CMCC50015; settings: Salmonella enterica, 150 μL of 10 mg/ml in 1% acetonitrile aqueous solution, 1% indicator bacteria, read-out: Diameter of inhibition zone
Experimental: as §1

[10] = test system: Staphylococcus aureus ATCC25923; settings: 150 μL of 10 mg/ml in 1% acetonitrile aqueous solution, 1% indicator bacteria, read-out: Diameter of inhibition zone
Experimental: as §1

[11] = test system: Staphylococcus carnosus pCA44; settings: PCA44, read-out: Diameter of inhibition zone
Experimental: as §1

[12] = test system: Staphylococcus carnosus pot20; settings: 150 μL of 10 mg/ml in 1% acetonitrile aqueous solution, 1% indicator bacteria, read-out: Diameter of inhibition zone
Experimental: as §1

[13] = test system: Staphylococcus citreus LC5; settings: 150 μL of 10 mg/ml in 1% acetonitrile aqueous solution, 1% indicator bacteria, read-out: Diameter of inhibition zone
Experimental: as §1

Staphylococcus simulans = settings: 150 μL of 10 mg/ml in 1% acetonitrile aqueous solution, 1% indicator bacteria, read-out: Diameter of inhibition zone
Experimental: as §1

Staphylococcus warneri = settings: 150 μL of 10 mg/ml in 1% acetonitrile aqueous solution, 1% indicator bacteria, read-out: Diameter of inhibition zone
Experimental: as §1

Question: Which zone of inhibition at 10000 µg/mL (Bacillus subtilis BAS2) does the source give for `O=C(O)C(O)Cc1c[nH]c2ccccc12` (centres unmarked) [indole-3-lactic acid, Indole-3-lactic acid] here?
Answer: 15.67 ± 0.01 mm

Question: And the zone of inhibition at 10000 µg/mL (Escherichia coli DH5α)?
Answer: 12.5 ± 0.17 mm

Question: What about the zone of inhibition at 10000 µg/mL [1] of the same compound?
Answer: 10.95 ± 0.07 mm

Question: And the zone of inhibition at 10000 µg/mL [2]?
Answer: 19.1 ± 0.76 mm

Question: And the zone of inhibition at 10000 µg/mL [3]?
Answer: 10.66 ± 0.08 mm

Question: What about the zone of inhibition at 10000 µg/mL [4] of the same compound?
Answer: 13.6 ± 0.23 mm

Question: What about the zone of inhibition at 10000 µg/mL [5] of the same compound?
Answer: 13.4 ± 0.45 mm

Question: And the zone of inhibition at 10000 µg/mL [6]?
Answer: 12.8 ± 0.17 mm

Question: And the zone of inhibition at 10000 µg/mL [7]?
Answer: 15.06 ± 0.08 mm

Question: And the zone of inhibition at 10000 µg/mL [8]?
Answer: 13.2 ± 0.21 mm

Question: What about the zone of inhibition at 10000 µg/mL [9] of the same compound?
Answer: 12.7 ± 0.18 mm

Question: And the zone of inhibition at 10000 µg/mL [10]?
Answer: 13.4 ± 0.25 mm

Question: What about the zone of inhibition at 10000 µg/mL [11] of the same compound?
Answer: 16.4 ± 0.27 mm

Question: What about the zone of inhibition at 10000 µg/mL [12] of the same compound?
Answer: 15 ± 0.55 mm

Question: What about the zone of inhibition at 10000 µg/mL [13] of the same compound?
Answer: 13.06 ± 0.08 mm

Question: What about the zone of inhibition at 10000 µg/mL (Staphylococcus simulans) of the same compound?
Answer: 13.4 ± 0.25 mm

Question: And the zone of inhibition at 10000 µg/mL (Staphylococcus warneri)?
Answer: 18.76 ± 0.06 mm
